Data reported in PubChem BioAssay AID2060501 (Molecular Pharmacology Branch, DTP, NCI, 2025).
Values joined by “and” are separate entries in the source; they are usually repeats but may differ in a detail not shown here. Identical values can stand only once. Values belong to the compound of their own block, whether it stands above or below them.

Tested on: 282377-053-R-J1-PDC complex spheroids, viability
Assay: Anticancer human tumor 282377-053-R-J1-PDC patient-derived colon adenocarcinoma cell line growth inhibition [GQUAD]
Settings: for viability, T/C: stronger effect = lower value
Source text: DNA G-quadruplex Stabilizer Agents in Combinations in Complex Spheroids
A high-throughput screen of multi-cell type tumor spheroids was designed to identify active combinations of DNA G-quadruplex stabilizer agents and targeted small molecules. Complex spheroids include a stromal component modeled by human endothelial cells (HUVEC) and fibroblasts modeled by human mesenchymal stem cells (MSCs). The concentration ranges selected for each drug and investigational agent were based upon clinically achievable concentrations if the clinical Cmax of the agent was known.
Compounds. The drugs and investigational agents: pidnarulex (CX-5461; NSC782164), APTO-253 (NSC789042), BRACO-19 (NSC847499), peposertib (NSC802822), ceralasertib (NSC780249), elimusertib (NSC800525), camonsertib (NSC841442), AZD-1390 (NSC803789), olaparib (NSC753686), talazoparib (NSC767125), ART-558 (NSC835418), sotorasib (NSC818433), MRTX-1133 (NSC836407), SN-38 (NSC673596), topotecan (NSC609699), etoposide (NSC141540), doxorubicin (NSC123127), gemcitabine (NSC613327), 5-fluorouracil (NSC19893), paclitaxel (NSC125973), vemurafenib (NSC761431), panobinostat (NSC761190), R-306465 (JNJ-16241199; NSC773264), adavosertib (NSC754352), TP-3654 (NSC805149), carboplatin (NSC241240), KSQ-4279 (NSC840948), and staurosporine (NSC755774) were obtained from the National Cancer Institute (NCI) Developmental Therapeutics Program Chemical Repository (34). The FDA-approved anticancer drug set is available from the NCI Developmental Therapeutics Program. […] The stock solutions were prepared in dimethyl sulfoxide (DMSO, Sigma-Aldrich, St. Louis, MO, cat. D2650) at 800-fold the tested concentration and stored at -70 degrees C prior to their use. All drugs and investigational agents were tested over a range starting from a high concentration at or near the clinical Cmax and decreasing in half-log increments. If the clinical Cmax for an agent had not been determined, the highest concentration tested was 10 microM.
2.3 Cell Culture. All cells were maintained in an incubator at 37 degrees C and 5% CO2 with 95% humidity. The PDC lines were cultured according to standard operating procedures established by the NCI PDMR. All PDCs were thawed and cultured in Matrigel-coated flasks prepared with a working solution of 1X Ham's F-12 nutrient mix, without supplementation (Invitrogen, cat. 11765054), 100 U/mL penicillin-streptomycin (Invitrogen, cat. 15140122), and 2.5% Matrigel (Corning Inc., cat. 354248) for the first three passages. The 857933-349-R-J2-PDC line was cultured in 6C/Colon 1B media, which includes advanced DMEM/F-12 (Thermo Fisher Scientific, cat. 12634028), 10 mM HEPES (Thermo Fisher Scientific, cat. 15630080), 1X GlutaMAX supplement (Thermo Fisher Scientific, cat. 35050061), 0.1 mg/mL primocin (InvivoGen, cat. ant-pm-2), 10% defined fetal bovine serum, heat inactivated (HyClone Laboratories Inc., cat. SH30070.03HI), 50% L-WRN conditioned media (ATCC, cat. CRL-3276), 1.25 mM N-Acetyl-L-cysteine (Sigma-Aldrich, cat. A9165), 10 mM nicotinamide (Sigma-Aldrich, cat. N0636), 1X B-27 supplement (Thermo Fisher Scientific, cat. 17504044), 1X N-2 supplement (Thermo Fisher Scientific, cat. 17502048), 10 microM Y-27632 dihydrochloride (Tocris Bioscience, cat. 1254), and 50 ng/mL human EGF recombinant protein (Thermo Fisher Scientific, cat. PHG0311). The 485176-168-R4-J1-PDC line was cultured in Panc media, which includes all 6C/Colon 1B media components plus 100 ng/mL human FGF-10 (Thermo Fisher Scientific, cat. 100-26), 500 nM SB-431542 (Selleckchem, cat. S1067), and gastrin (Tocris, cat. 3006).
[…]
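Further: spheroids exposed to compounds for 7 days before readout.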
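Wherever viability, T/C is given: percent of vehicle DMSO control viability with 100% = untreated-like growth.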

IC50 (curve of first compound, second compound 0.0316 µM): > 316 nM
IC50 (curve of first compound, second compound 0.1 µM): > 316 nM
IC50 (curve of first compound, second compound 0.316 µM): > 316 nM
IC50 (curve of first compound, second compound 1 µM): 115 nM
IC50 (curve of first compound, second compound 3.16 µM): 10.8 nM
IC50 (curve of first compound, second compound 10 µM): < 0.999 nM
SMILES: CC[C@@]1(O)C(=O)OCc2c1cc1n(c2=O)Cc2cc3c(CN(C)C)c(O)ccc3nc2-1 + Cc1cnc(CNC(=O)c2c(=O)c3ccc(N4CCCN(C)CC4)nc3n3c2sc2ccccc23)cn1
viability, T/C (second compound 0.0316 µM, first compound 0.000999 µM): 136%
viability, T/C (second compound 0.0316 µM, first compound 0.00316 µM): 115%
viability, T/C (second compound 0.0316 µM, first compound 0.00999 µM): 125%
viability, T/C (second compound 0.0316 µM, first compound 0.0316 µM): 107%
viability, T/C (second compound 0.0316 µM, first compound 0.0999 µM): 79.7%
viability, T/C (second compound 0.0316 µM, first compound 0.316 µM): 66.7%
viability, T/C (second compound 0.1 µM, first compound 0.000999 µM): 110%
viability, T/C (second compound 0.1 µM, first compound 0.00316 µM): 116%
viability, T/C (second compound 0.1 µM, first compound 0.00999 µM): 89.5%
viability, T/C (second compound 0.1 µM, first compound 0.0316 µM): 90.9%
viability, T/C (second compound 0.1 µM, first compound 0.0999 µM): 84.2%
viability, T/C (second compound 0.1 µM, first compound 0.316 µM): 73.1%
viability, T/C (second compound 0.316 µM, first compound 0.000999 µM): 96.3%
viability, T/C (second compound 0.316 µM, first compound 0.00316 µM): 87.3%
viability, T/C (second compound 0.316 µM, first compound 0.00999 µM): 86.4%
viability, T/C (second compound 0.316 µM, first compound 0.0316 µM): 88.6%
viability, T/C (second compound 0.316 µM, first compound 0.0999 µM): 71%
viability, T/C (second compound 0.316 µM, first compound 0.316 µM): 57.7%
viability, T/C (second compound 1 µM, first compound 0.000999 µM): 72.4%
viability, T/C (second compound 1 µM, first compound 0.00316 µM): 66.6%
viability, T/C (second compound 1 µM, first compound 0.00999 µM): 58.3%
viability, T/C (second compound 1 µM, first compound 0.0316 µM): 50.9%
viability, T/C (second compound 1 µM, first compound 0.0999 µM): 53.1%
viability, T/C (second compound 1 µM, first compound 0.316 µM): 47.5%
viability, T/C (second compound 3.16 µM, first compound 0.000999 µM): 54.1%
viability, T/C (second compound 3.16 µM, first compound 0.00316 µM): 56.6%
viability, T/C (second compound 3.16 µM, first compound 0.00999 µM): 50.1%
viability, T/C (second compound 3.16 µM, first compound 0.0316 µM): 41.8%
viability, T/C (second compound 3.16 µM, first compound 0.0999 µM): 51.3%
viability, T/C (second compound 3.16 µM, first compound 0.316 µM): 47.3%
viability, T/C (second compound 10 µM, first compound 0.000999 µM): 46.1%
viability, T/C (second compound 10 µM, first compound 0.00316 µM): 50.2%
viability, T/C (second compound 10 µM, first compound 0.00999 µM): 49.8%
viability, T/C (second compound 10 µM, first compound 0.0316 µM): 49.2%
viability, T/C (second compound 10 µM, first compound 0.0999 µM): 43.3%
viability, T/C (second compound 10 µM, first compound 0.316 µM): 48.6%

SMILES: O=C(NO)c1cnc(N2CCN(S(=O)(=O)c3ccc4ccccc4c3)CC2)nc1
viability, T/C (compound 0.0316 µM): 58.1% and 117% and 100%
viability, T/C (compound 0.1 µM): 20% and 107% and 82%
viability, T/C (compound 0.316 µM): 22.4% and 79.1% and 64.8%
viability, T/C (compound 1 µM): 21.8% and 2.34% and 0.84%
viability, T/C (compound 3.16 µM): 24.6% and 0.24% and 0.11%
viability, T/C (compound 10 µM): 25.1% and 0.26% and 0.18%

IC50 (curve of compound): 8360 nM and > 10000 nM
SMILES: CC1COCCN1c1cc(C2(S(C)(=N)=O)CC2)nc(-c2ccnc3[nH]ccc23)n1 (configuration not stated)
viability, T/C (compound 0.0316 µM): 96.3% and 86.8% and 105%
viability, T/C (compound 0.1 µM): 101% and 80.1% and 81.3%
viability, T/C (compound 0.316 µM): 100% and 97.5% and 101%
viability, T/C (compound 1 µM): 62.2% and 81.9% and 77.9%
viability, T/C (compound 3.16 µM): 86.1% and 70.7% and 78.6%
viability, T/C (compound 10 µM): 42.4% and 60.9% and 49.9%

IC50 (curve of compound): > 10000 nM and 2380 nM and 1590 nM
SMILES: CC(C)(O)C1CCC(Nc2ccc3ncc(-c4cccc(C(F)(F)F)c4)n3n2)CC1 (configuration not stated)
viability, T/C (compound 0.0316 µM): 95.4% and 108% and 93.2%
viability, T/C (compound 0.1 µM): 77.4% and 81.7% and 98.5%
viability, T/C (compound 0.316 µM): 107% and 80.8% and 81.9%
viability, T/C (compound 1 µM): 96.5% and 87.1% and 71.6%
viability, T/C (compound 3.16 µM): 101% and 33.2% and 13.8%
viability, T/C (compound 10 µM): 95% and 42.3% and 22.1%
